Results from patent publication US20210038559A1, “CANNABINOIDS AND DERIVATIVES FOR PROMOTING IMMUNOGENICITY OF TUMOR AND INFECTED CELLS” (priority 2018, published 2021).

Tested on: MHC-I expression by COLO 205 cells
Experiment: cells
Assay type: cell-based, human
Conditions: not given
Experimental: A panel of synthetic cannabinoids (Cayman Chemical, #9002891) was tested for MHC class I-inducing capability in COLO 205 cells as described above. COLO 205 cells were treated with the compounds at a concentration of 35 μM and evaluated for cell surface MHC class I expression after 48 hours. Cells were harvested, stained with MHC-I mAb W6/32 (Thermo Fisher). MHC-I expression was determined by flow cytometry.

| Structure (SMILES) | Induction Fold |
| --- | --- |
| CCCCCOc1ccc(C(=O)c2cccc3ccccc23)c2ccccc12 [Example 152, 1-naphthalenyl[4-(pentoxy)-1-naphthalenyl]-methanone] | 2.12 Fold |
| C#CCCCCCCCCCNC(=O)Oc1cccc(-c2cccc(C(N)=O)c2)c1 [Example 182, 3′-carbamoyl-biphenyl-3-yl-undecynecarbamate] | 1.93 Fold |

Same assay, conditions: Homo sapiens, COLO 205, 48 h, MHC-I expression, COLO 205 cells, compounds at 35 μM, 48 hours, flow cytometry (W6/32); read-out: Induction Fold

| Structure (SMILES) | fold induction at 35 µM |
| --- | --- |
| CCCCCn1cc(C(=O)c2cccc3ccc(Cl)cc23)c2ccccc21 [Example 146, (7-chloronaphthalen-1-yl)(1-pentyl-1H-indol-3-yl)methanone] | 2.16 |
| CC1(C)C(C(=O)c2cn(CCN3CCOCC3)c3ccccc23)C1(C)C [Example 147, [1-[2-(4-morpholinyl)ethyl]-1H-indol-3-yl](2,2,3,3-tetramethylcyclopropyl)-methanone] | 2.14 |
| C=CCCCn1cc(C(=O)C2C(C)(C)C2(C)C)c2ccccc21 [Example 148, (1-(pent-4-en-1-yl)-1H-indol-3-yl)(2,2,3,3-tetramethylcyclopropyl)methanone] | 2.14 |
| CCCCCn1cc(C(=O)c2ccc(F)c3ccccc23)c2ccccc21 [Example 150, (4-fluoro-1-naphthalenyl)(1-pentyl-1H-indol-3-yl)-methanone] | 2.14 |
| CCCC(F)Cn1cc(C(=O)C2C(C)(C)C2(C)C)c2ccccc21 (stereo not shown) [Example 153, [1-(2-fluoropentyl)-1H-indol-3-yl] (2,2,3,3-tetramethylcyclopropyl)-methanone] | 2.11 |
| Cc1ccc(C(=O)c2cn(CCCCCF)c3ccccc23)c2ccccc12 [Example 155, [1-(5-fluoropentyl)-1H-indol-3-yl](4-methyl-1-naphthalenyl)-methanone] | 2.08 |
| O=C(c1cccc2ccccc12)c1cn(CCCC2CO2)c2ccccc12 (stereo not shown) [Example 156, naphthalen-1-yl(1-(3-(oxiran-2-yl)propyl)-1H-indol-3-yl)methanone] | 2.07 |
| CCCC(Cl)Cn1cc(C(=O)C2C(C)(C)C2(C)C)c2ccccc21 (stereo not shown) [Example 157, (1-(2-chloropentyl)-1H-indol-3-yl)(2,2,3,3-tetramethylcyclopropyl)methanone] | 2.07 |
| O=C(Oc1cccc2ncccc12)c1cn(CCCCCF)c2ccccc12 [Example 158, quinolin-5-yl 1-(5-fluoropentyl)-1H-indole-3-carboxylate] | 2.07 |
| CCCCCCC(C)(C)c1cc(O)cc(OCCCCCCCC(=O)NC2CC2)c1 [Example 159, N-cyclopropyl-8-[3-(1,1-dimethylheptyl)-5-hydroxyphenoxy]-octanamide] | 2.06 |
| O=C(c1cn(CCCCCF)c2ccccc12)C12CC3CC(CC(C3)C1)C2 [Example 160, [1-(5-fluoropentyl)-1H-indol-3-yl]tricyclo[3.3.1.13,7]dec-1-yl-methanone] | 2.06 |
| CCCCCn1cc(C(=O)c2cccc3ccc(C)cc23)c2ccccc21 [Example 161, (7-methyl-1-naphthalenyl)(1-pentyl-1H-indol-3-yl)-methanone] | 2.06 |
| O=C(Oc1cccc2cnccc12)c1cn(CC2CCCCC2)c2ccccc12 [Example 162, isoquinolin-5-yl 1-(cyclohexylmethyl)-1H-indole-3-carboxylate] | 2.04 |
| CCCCCn1cc(C(=O)c2cccc3ccc(OC)cc23)c2ccccc21 [Example 163, (7-methoxy-1-naphthalenyl)(1-pentyl-1H-indol-3-yl)-methanone] | 2.04 |
| CCCCCn1cc(C(=O)c2ccc(CCC)c3ccccc23)c2ccccc21 [Example 164, (1-pentyl-1H-indol-3-yl)(4-propyl-1-naphthalenyl)-methanone] | 2.03 |
| CCCCCn1cc(C(=O)Cc2cccc(C)c2)c2ccccc21 [Example 165, 1-(1-pentyl-1H-indol-3-yl)-2-(m-tolyl)ethanone] | 2.02 |
| O=C(Nc1cccc2cccnc12)c1nn(CCCCCF)c2ccccc12 [Example 166, 1-(5-fluoropentyl)-N-(quinolin-8-yl)-1H-indazole-3-carboxamide] | 2.01 |
| O=C(Oc1cccc2ccccc12)c1nn(CCCCCF)c2ccccc12 [Example 167, naphthalen-1-yl 1-(5-fluoropentyl)-1H-indazole-3-carboxylate] | 2.01 |
| CC(C)(C)Cn1cc(C(=O)c2ccc3ccccc3c2)c2ccccc21 [Example 168, [1-(2,2-dimethylpropyl)-1H-indol-3-yl]-2-naphthalenyl-methanone] | 2.01 |
| CC(C)[C@H](NC(=O)c1nn(CCCCCCl)c2ccccc12)C(N)=O [Example 170, N-[(1S)-1-(aminocarbonyl)-2-methylpropyl]-1-(5-chloropentyl)-1H-indazole-3-carboxamide] | 2.01 |
| CCCCCn1nc(C(=O)Oc2cccc3ccccc23)c2ccccc21 [Example 171, naphthalen-1-yl 1-pentyl-1H-indazole-3-carboxylate] | 1.99 |
| CC(C)[C@H](NC(=O)c1nn(Cc2ccc(F)cc2)c2ccccc12)C(N)=O [Example 172, N-[(1S)-1-(aminocarbonyl)-2-methylpropyl]-1-[(4-fluorophenyl)methyl]-1H-indazole-3-carboxamide] | 1.99 |
| CCC(F)CCCn1cc(C(=O)c2cccc3ccccc23)c2ccccc21 (stereo not shown) [Example 173, (1-(4-fluorohexyl)-1H-indol-3-yl)(naphthalen-1-yl)methanone] | 1.98 |
| CCC(F)CCn1cc(C(=O)c2ccc(C)c3ccccc23)c2ccccc21 (stereo not shown) [Example 174, (1-(3-fluoropentyl)-1H-indol-3-yl)(4-methylnaphthalen-1-yl)methanone] | 1.96 |
| CCCCCn1cc(C(=O)c2cccc3ccccc23)c2ccc(OC)cc21 [Example 175, (6-methoxy-1-pentyl-1H-indol-3-yl)(naphthalen-1-yl)-methanone] | 1.95 |
| CCCC(F)CCn1cc(C(=O)c2cccc3ccccc23)c2ccccc21 (stereo not shown) [Example 176, (1-(3-fluorohexyl)-1H-indol-3-yl)(naphthalen-1-yl)methanone] | 1.95 |
| O=C(c1cccc2ccccc12)c1cn(CCCCCCl)c2ccccc12 [Example 177, (1-(5-chloropentyl)-1H-indol-3-yl)(naphthalen-1-yl)methanone] | 1.94 |
| CCCCCn1cccc1C(=O)c1cccc2ccccc12 [Example 178, naphthalen-1-yl(1-pentyl-1H-pyrrol-2-yl)methanone] | 1.94 |
| CCCCCn1cc(C(=O)c2ccc(CC)c3ccccc23)c2ccccc21 [Example 180, (4-ethyl-1-naphthalenyl)(1-pentyl-1H-indol-3-yl)-methanone] | 1.93 |
| CCCCCn1cc(C(=O)Cc2ccc(C)cc2)c2ccccc21 [Example 181, 2-(4-methylphenyl)-1-(1-pentyl-1H-indol-3-yl)-ethanone] | 1.93 |

Same assay, conditions: MHC-I expression, COLO 205 cells, compounds at 35 μM, 48 hours, flow cytometry (W6/32)

| Structure (SMILES) | Induction Fold |
| --- | --- |
| CCCCCn1nc(C(=O)c2cccc3ccccc23)c2ccccc21 [Example 149, 1-naphthalenyl(1-pentyl-1H-indazol-3-yl)-methanone] | 2.14 Fold |
| COC(=O)[C@H](NC(=O)c1nn(CCCCCF)c2ccccc12)C(C)(C)C [Example 179, N-[[1-(5-fluoropentyl)-1H-indazol-3-yl]carbonyl]-3-methyl-D-valine, methyl ester] | 1.94 Fold |
